# Source: patent US8785147B2, “L-threonine analysis method and L-threonine dehydrogenase” (Toyama Prefecture, priority 2010, dated 2014)
# Like-named read-outs stand apart in the source and are kept apart here.
# How the values were obtained:
# [1] = target: PfTDH: TDH from Pyrococcus furiosus (Pyrococcus furiosus, UniProt Q8U259); settings: cited from earlier work
# [2] = tested on: CsTDH: TDH from Clostridium sticklandii; settings: substrate specificity; L-threonine = 100; cited from earlier work
# [3] = tested on: CyTDH: TDH from Cytophaga sp. KUC-1; settings: substrate specificity; L-threonine = 100; cited from earlier work
# [4] = tested on: TDH derived from Cupriavidus necator NBRC 102504 (SEQ ID NO: 1) (CnTDH); assay: Substrate specificity of TDH, standard assay; format: biochemical; settings: for Relative activity (%) CnTDH: substrate concentration 10 mM, standard assay conditions, L-threonine = 100; for Activity of the enzyme with the coenzyme (in words): as coenzyme
# Experimental: L-threonine oxidation activity was determined by measuring coenzyme NAD^+ reduction at 30° C. and 340 nm. The reaction composition consisted of a total volume of 1 mL and contained L-threonine (final concentration 10 mM), NAD^+ (final concentration 2.5 mM), and glycine-KCl—KOH buffer (100 mM, pH 10.0). The measurement of activity began with the addition of the enzyme. One unit (U) of enzymatic activity was defined as the amount of enzyme producing 1 μmol of NADH per minute under standard conditions.
# TDH was examined using substrates in the form of various L-amino acids, amino alcohols, and alcohols. […]
# [5] = target: EcTDH: TDH from Escherichia coli K-12 (Escherichia coli, UniProt P07913); settings: cited from earlier work
# [6] = tested on: Purified TDH derived from Cupriavidus necator NBRC 102504; assay: Effect of metal ions and inhibitors on TDH activity (residual activity); format: biochemical
# [7] = substrate specificity, L-threonine = 100
# [8] = metal ions final concentration 1 mM, 30° C. for 1 hour, relative to enzyme without additives
# [9] = inhibitors final concentration 10 mM, 30° C. for 1 hour
# [10] = inhibitors final concentration 10 mM, 30° C. for 1 hour, None = 100
# PfTDH: TDH from Pyrococcus furiosus, sequence (Q8U259 whole entry): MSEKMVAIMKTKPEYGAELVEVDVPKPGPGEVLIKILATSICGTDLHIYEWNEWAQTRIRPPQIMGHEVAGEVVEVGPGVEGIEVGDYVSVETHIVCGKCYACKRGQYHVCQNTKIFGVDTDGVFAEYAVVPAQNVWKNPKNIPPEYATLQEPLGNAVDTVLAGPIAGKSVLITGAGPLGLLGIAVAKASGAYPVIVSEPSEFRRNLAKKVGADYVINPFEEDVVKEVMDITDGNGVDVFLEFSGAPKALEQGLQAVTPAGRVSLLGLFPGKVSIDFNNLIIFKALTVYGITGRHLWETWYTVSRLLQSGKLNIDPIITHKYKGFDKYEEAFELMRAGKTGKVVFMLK
# EcTDH: TDH from Escherichia coli K-12, sequence (P07913 whole entry): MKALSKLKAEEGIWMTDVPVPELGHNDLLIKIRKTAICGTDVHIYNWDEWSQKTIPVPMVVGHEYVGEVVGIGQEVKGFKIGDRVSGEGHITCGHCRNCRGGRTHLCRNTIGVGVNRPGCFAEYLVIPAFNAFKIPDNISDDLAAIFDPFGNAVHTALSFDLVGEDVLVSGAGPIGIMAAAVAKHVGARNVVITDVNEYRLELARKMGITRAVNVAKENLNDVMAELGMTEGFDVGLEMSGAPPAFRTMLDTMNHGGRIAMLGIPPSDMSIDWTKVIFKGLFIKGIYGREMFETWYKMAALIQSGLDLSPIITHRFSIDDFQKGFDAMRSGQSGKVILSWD
Molecule,Relative activity (%) CsTDH [2] [%],Relative activity (%) CnTDH [4] [%],"Relative activity (residual TDH activity) [6, 8] [%]",other results
NC(=O)CC[C@H](N)C(=O)O [L-glutamine],0,0,,"Relative activity (%) PfTDH [1, 7]: 0%; Relative activity (%) CyTDH [3]: 0%"
N[C@@H](Cc1c[nH]cn1)C(=O)O [L-histidine],0,0,,"Relative activity (%) PfTDH [1, 7]: 0%; Relative activity (%) CyTDH [3]: 0%"
CC[C@H](C)[C@H](N)C(=O)O [L-isoleucine],0,0,,"Relative activity (%) PfTDH [1, 7]: 0%; Relative activity (%) CyTDH [3]: 0%"
NCCCC[C@H](N)C(=O)O [L-lysine],0,0,,"Relative activity (%) PfTDH [1, 7]: 0%; Relative activity (%) CyTDH [3]: 0%"
CSCC[C@H](N)C(=O)O [L-methionine],0,0,,Relative activity (%) PfTDH [1]: 0%; Relative activity (%) CyTDH [3]: 0%
NCCC[C@H](N)C(=O)O [L-ornithine],,0,,Relative activity (%) PfTDH [1]: 0%
N[C@@H](Cc1ccccc1)C(=O)O [L-phenylalanine],0,0,,"Relative activity (%) PfTDH [1, 7]: 0%; Relative activity (%) CyTDH [3]: 0%"
O=C(O)[C@@H]1CCCN1 [L-proline],0,0,,Relative activity (%) PfTDH [1]: 0%; Relative activity (%) CyTDH [3]: 0%
C[C@@H](O)[C@H](N)C(N)=O [L-threonine amide],0,0,,Relative activity (%) EcTDH [5]: 98%
C[C@@H](O)[C@H](N)C(=O)O [L-threonine hydroxide],0,0,,"Relative activity (%) EcTDH [5, 7]: 25%"
N[C@@H](Cc1c[nH]c2ccccc12)C(=O)O [L-tryptophan],0,0,,"Relative activity (%) PfTDH [1, 7]: 0%; Relative activity (%) CyTDH [3]: 0%"
N[C@@H](Cc1ccc(O)cc1)C(=O)O [L-tyrosine],0,0,,"Relative activity (%) PfTDH [1, 7]: 0%; Relative activity (%) CyTDH [3]: 0%"
CC(C)[C@H](N)C(=O)O [L-valine],0,0,,"Relative activity (%) PfTDH [1, 7]: 0%; Relative activity (%) CyTDH [3]: 0%"
[Cl-].[Li+] [LiCl],,,109,
[Cl-].[Cl-].[Mg+2] [MgCl2],,,112,
O=S(=O)([O-])[O-].[Mg+2] [MgSO4],,,112,
[Cl][Mn][Cl] [MnCl2],,,102,

Molecule,Relative activity (%) CsTDH [2] [%],Relative activity (%) CnTDH [4] [%],"Relative activity (residual TDH activity) [6, 8] [%]",other results
O=S(=O)([O-])[O-].[Mn+2] [MnSO4],,,114,
NC(=O)c1ccc[n+]([C@@H]2O[C@H](COP(=O)([O-])OP(=O)(O)OC[C@H]3O[C@@H](n4cnc5c(N)ncnc54)[C@H](OP(=O)(O)O)[C@@H]3O)[C@@H](O)[C@H]2O)c1 [NADP^+],,,,Activity of the enzyme with the coenzyme (in words) [4]: No activity of the enzyme was observed
"NC(=O)c1ccc[n+]([C@@H]2O[C@H](COP(=O)([O-])OP(=O)(O)OC[C@H]3O[C@@H](n4cnc5c(N)ncnc54)[C@H](O)[C@@H]3O)[C@@H](O)[C@H]2O)c1 [NAD^+, nicotinamide adenine dinucleotide]",,,,Activity of the enzyme with the coenzyme (in words) [4]: showed the activity
CCN1C(=O)C=CC1=O [NEM],,,,"Inhibition of TDH activity (in words) [6, 9]: inhibited; Relative activity (%) (residual TDH activity) [6, 10]: 0.0%"
[Na+].[Na+].[O]=[Mo](=[O])([O-])[O-] [NaMoO4],,,113,
[N-]=[N+]=[N-].[Na+] [NaN3],,,,Relative activity (%) (residual TDH activity) [6]: 12%
[Cl][Ni][Cl] [NiCl2],,,119,
O=C(O)c1cc[c]([Hg][Cl])cc1 [PCMB],,,,"Relative activity (%) (residual TDH activity) [6, 10]: 6.2%"
"COS(=O)(=O)[O-].C[n+]1c2ccccc2nc2ccccc21 [PMS, phenazine methosulfate]",,,,"Inhibition of TDH activity (in words) [6, 9]: inhibited; Relative activity (%) (residual TDH activity) [6, 10]: 0.0%"
[Cl][Pb][Cl] [PbCl2],,,118,
[Cl][Sn][Cl] [SnCl2],,,84,
NCCS(=O)(=O)O [Taurine],,0,,
[Cl-].[Cl-].[Zn+2] [ZnCl2],,,105,
O=S(=O)([O-])[O-].[Zn+2] [ZnSO4],,,109,
OCCS [β-mercaptoethanol],,,,"Inhibition of TDH activity (in words) [6, 9]: Nor did the reducing agents β-mercaptoethanol and DTT inhibit enzymatic activity; Relative activity (%) (residual TDH activity) [6, 10]: 114%"
Calcium pantothenate,,,,"Inhibition of TDH activity (in words) [6, 9]: slight inhibiting; Relative activity (%) (residual TDH activity) [6, 10]: 95.0%"
CoCl2,,,,Relative activity (residual TDH activity) [6]: 115%
